Test results taken from patent US9846160B2, “Ganglioside GD2 as a marker and target on cancer stem cells” (Board of Regents, The University of Texas System, priority 2012, dated 2017).
Entries after “also recorded” stand apart in the source; their conditions may differ.

Tests used:
GD3S mRNA expression [1] = assay: GD3S mRNA expression by real-time RT-PCR in MDA-MB-231 cells; format: cell-based, Human
Method: (§1) MDA-MB-231 cells (A) or SUM159 cells (B) (5×10^5/well) of 6 well cell culture dish was treated with 25 nM or 50 nM or 75 nM or 100 nM or 125 nM concentration of Triptolide for 24 hrs. Total RNA was extracted and GD3S expression was measured by real-time RT-PCR. (C) To measure GD2^+ cells growth inhibition, 5×10^5 MDA-MB-231 cells were plated in each well of 6 well cell culture dish and treated with 25 nM or 50 nM or 75 nM or 100 nM or 125 nM concentration of Triptolide for 48 hrs or 72 hrs. After incubation, the cells were detached with trypsin and stained with anti-GD2 antibody and Sytox-Red (for dead cells). The stained cells were analyzed on LSR-II flow cytometer. Absolute number of live cells were calculated by measuring 1000 events for True Count® beads as explained methods. […] (E) Tumors sizes from the mice in experiment in FIG. 6D were measured every week after tumor engraftment and the measurements were shown in a line graph. […] Control (n=4, black line) and Triptolide (n=4, blue line), were analyzed for cumulative survival. […]
(§2) For mRNA analysis 5×10^5 MDA-MB-231 or SUM159 breast cancer cell lines were incubated with triptolide (Alexis Biochemicals, San Diego, Calif.) at 25, 50, 75, 100 and 125 nM concentrations for 24 hrs at 37° C. in six-well cell culture dishes. […] The cells were analyzed in LSR-II flow cytometer (BD). […]

GD3S mRNA expression [2] = assay: GD3S mRNA expression by real-time RT-PCR in SUM159 cells; format: cell-based, Human; conditions: Sum159, 125 nM, 24 hr, dose dependent
Method: as §1, §2

MDA-MB-231 cells [3] = assay: GD2+ cell growth inhibition / apoptosis by flow cytometry after triptolide; format: cell-based, Human
Method: as §1, §2

MDA-MB-231 cells [4] = assay: Tumor growth inhibition and survival, MDA-MB-231 xenografts; format: in vivo, NOD/SCID mice; conditions: for tumor growth compared to control mice: after 4 weeks; for reduction in tumor volume: in 25% of mice, 0.15 mg/kg/day
Method: MDA-MB-231 cells (A) or SUM159 cells (B) (5×10^5/well) of 6 well cell culture dish was treated with 25 nM or 50 nM or 75 nM or 100 nM or 125 nM concentration of Triptolide for 24 hrs. Total RNA was extracted and GD3S expression was measured by real-time RT-PCR. (C) To measure GD2^+ cells growth inhibition, 5×10^5 MDA-MB-231 cells were plated in each well of 6 well cell culture dish and treated with 25 nM or 50 nM or 75 nM or 100 nM or 125 nM concentration of Triptolide for 48 hrs or 72 hrs. After incubation, the cells were detached with trypsin and stained with anti-GD2 antibody and Sytox-Red (for dead cells). The stained cells were analyzed on LSR-II flow cytometer. Absolute number of live cells were calculated by measuring 1000 events for True Count® beads as explained methods. (D) To determine the inhibition of tumor growth, 1×10^6 MDA-MB-231 cells were subcutaneously transplanted into NOD/SCID mice (n=8, 4 mice/group). A group of the mice were treated with 0.15 mg/kg/day of triptolide and the control group was treated with PBS everyday by intra peritoneal injections. At the end of 8 weeks, mice were sacrificed, tumors were dissected out and photographed. (E) Tumors sizes from the mice in experiment in FIG. 6D were measured every week after tumor engraftment and the measurements were shown in a line graph. (F) The survival analysis was based on Kaplan-Myer estimation and groups were compared by the log-rank test. Control (n=4, black line) and Triptolide (n=4, blue line), were analyzed for cumulative survival. Survival was defined as the time (in weeks) from transplant until death. P value represents the statistical significance.
For mRNA analysis 5×10^5 MDA-MB-231 or SUM159 breast cancer cell lines were incubated with triptolide (Alexis Biochemicals, San Diego, Calif.) at 25, 50, 75, 100 and 125 nM concentrations for 24 hrs at 37° C. in six-well cell culture dishes. For the growth inhibition studies, 3×10^5 MDA-MB-231 cells cultured in a 6 well tissue culture dishes were treated with triptolide at specified concentrations for either 24 hrs or 48 hrs. After incubation the cells were detached using trypsin and stained with anti-GD2 antibody (by indirect staining protocol) and pacific-blue conjugated Annexin-V (Invitrogen, Carlsbad, Calif.) following the manufactures instructions. The cells were analyzed in LSR-II flow cytometer (BD). The absolute number of cells were counted by measuring True Count® counting beads (Invitrogen) as per manufacturer's instructions. To examine tumor growth inhibition, survival of murine tumor xenografts was determined by subcutaneous administration of 1×10^6 MDA-MB-231 cells into 8-10 week old NOD/SCID mice. After growing for 2 weeks tumor xenografts reached a size of ˜50 mm^3 Thereafter, Triptolide (0.15 mg/Kg/day) was administered IP into the mice on a daily basis. The mice were sacrificed when the control tumors reached 2 cm or higher following institutional guidelines.
After the tumors reached 50 mm^3, the mice were randomly divided into two groups, and half of the mice treated with triptolide (0.15 mg/kg/day) while the other half were treated with PBS (control mice) every day by intraperitoneal injections. […] Fifty percent of triptolide treated breast tumors were completely tumor free and there was reduction in tumor volume by >8-fold in 25% of mice (FIG. 6D). In addition, tumors in triptolide treated mice were 3-fold smaller in size and 4-fold lighter by weight (FIG. 6E, FIG. 16). […] These findings indicate that […] plays a major role in regulating […] expression and the resulting GD2^+ population. Specifically, it affects cell proliferation and tumor initiation of GD2^+ breast cancer cells and when inhibited, greatly diminishes tumor growth and increases metastasis free survival of breast cancer bearing mice.

GD3S = conditions: melanoma cancer cell line; cited from earlier work
[5] = 0.15 mg/kg/day intraperitoneal, listed as triptolide

In the case of `CC(C)[C@]12O[C@H]1[C@@H]1O[C@]13[C@]1(O[C@H]1C[C@H]1C4=C(CC[C@@]13C)C(=O)OC4)[C@@H]2O` [Triptolide], the “inhibition of GD3S mRNA expression” value (GD3S mRNA expression [1]; MDA-MB-231, 125 nM, 24 hr, dose dependent) was greater than 95%, the “inhibition of GD3S expression” value (GD3S mRNA expression [1]; breast cancer cells, dose dependent manner (summary)) was greater than 95% and the “inhibition of GD3S mRNA expression” value (GD3S mRNA expression [2]) was greater than 95%. The “decrease of GD2+ cells (absolute cell counts)” value (MDA-MB-231 cells [3]; MDA-MB-231, different concentrations, 24 or 48 hours) was “dose dependent and time dependent decrease of GD2^+ cells”, the induction of apoptosis (MDA-MB-231 cells [3]; breast cancer cells / MDA-MB-231) was “induce apoptosis in MDA-MB-231 cells; also recorded: induced apoptosis in a time dependent manner” and the “treated breast tumors completely tumor free” value (MDA-MB-231 cells [4]; 0.15 mg/kg/day intraperitoneal) was “Fifty”. The “tumors lighter by weight vs control” value (MDA-MB-231 cells [4]; 0.15 mg/kg/day intraperitoneal) was 4 fold, the “tumors smaller in size vs control” value (MDA-MB-231 cells [4]; 0.15 mg/kg/day intraperitoneal) was 3 fold and the “tumor growth compared to control mice” value (MDA-MB-231 cells [4]; 0.15 mg/kg/day intraperitoneal) was “blocks tumor growth”. The “tumor growth compared to control mice” value (MDA-MB-231 cells [4]; [5]) was “dramatic decrease in tumor growth”, the tumor mass (MDA-MB-231 cells [4]; FIG. 16, p<0.01) was “reduces tumor mass” and the “reduction in tumor volume” value (MDA-MB-231 cells [4]; 0.15 mg/kg/day intraperitoneal) was 7- to 8 fold. For the same molecule, the “reduction in tumor volume” value (MDA-MB-231 cells [4]; [5]) was greater than 8 fold, the “mice in which tumors were eliminated” value (MDA-MB-231 cells [4]; intra-peritoneal administration) was 50% and the “survival of treated mice” value (MDA-MB-231 cells [4]; repeat experiment, Log-rank control vs triptolide p=0.0015) was “significantly prolonged survival”. For the same molecule, the “inhibition of GD3S” value (GD3S) was “has been shown to inhibit GD3S”.
